From patent US6982270B1, “3,4-dihydro-(1H)quinazolin-2-one compounds as CSBP/p38 kinase inhibitors” (SmithKline Beecham Corporation, priority 1999, dated 2006)

Molecular target: T1, CSBP/p38 (Homo sapiens, UniProt Q16539)
T1 construct: made in house; host or cells: yeast
Assay: CSBP/p38 Kinase Assay
Assay type: biochemical
Settings: 32P transfer from ATP to EGFR-derived peptide T669; yeast-expressed, activated p38; 0.17 mM ATP; "this binding assay or a similar assay"; read-out: IC50 (positive inhibitory activity)
Procedure: This assay measures the CSBP/p38-catalyzed transfer of ^32p from [a−^32P]ATP to threonine residue in an epidermal growth factor receptor (EGFR)-derived peptide (T669) with the following sequence: […] (residues 661-681). (See Gallagher et al., “Regulation of Stress Induced Cytokine Production by Pyridinyl Imidazoles: Inhibition of CSBP Kinase”, BioOrganic & Medicinal Chemistry, 1997, 5, 49-64).
Reactions were carried in round bottom 96 well plate (from Coming) in a […] volume. Reactions contained (in final concentration): 25 mM Hepes, pH 7.5; 8 mM MgCl2; 0.17 mM ATP (the Km[ATP] of p38 (see Lee et al., Nature 300, n72 pg. 639-746 (December 1994)); 2.5 uCi of [g-32P]ATP; 0.2 mM sodium orthovanadate; 1 mM DTT; 0.1% BSA; 10% glycerol; 0.67 mM T669 peptide; and 24 nM of yeast-expressed, activated and purified p38. Reactions were initiated by the addition of [gamma-32P]Mg/ATP, and incubated for 25 min. at 37° C. Inhibitors (dissolved in DMSO) were incubated with the reaction mixture on ice for 30 minutes prior to adding the 32P-ATP. Final DMSO concentration was 0.16%. Reactions were terminated by adding 10 ul of 0.3 M phosphoric acid, and phosphorylated peptide was isolated from the reactions by capturing it on p81 phosphocellulose filters. Filters were washed with 75 mM phosphoric acids, and incorporated 32P was quantified using beta scintillation counter. […]

T1 sequence (Q16539 whole entry): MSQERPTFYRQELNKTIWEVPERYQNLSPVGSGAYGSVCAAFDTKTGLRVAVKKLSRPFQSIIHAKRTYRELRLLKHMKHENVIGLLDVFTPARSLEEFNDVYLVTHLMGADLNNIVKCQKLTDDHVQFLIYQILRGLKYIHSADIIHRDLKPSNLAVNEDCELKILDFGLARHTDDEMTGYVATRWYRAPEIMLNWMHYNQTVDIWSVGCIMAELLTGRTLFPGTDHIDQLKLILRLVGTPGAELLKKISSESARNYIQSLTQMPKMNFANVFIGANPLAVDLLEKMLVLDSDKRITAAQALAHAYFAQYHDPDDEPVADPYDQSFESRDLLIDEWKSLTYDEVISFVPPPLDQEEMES

SMILES: O=C1NCc2cc(Nc3ccccc3)ccc2N1c1ccccc1 [Example 1, 1-Phenyl-2-oxo-3.4-dihydro-6-phenylaminoquinazoline]
- IC50: < 50 µM
